# Results published in patent US5349127A, “Expression of herbicide metabolizing cytochromes P450” (priority 1992, dated 1994).
# Key:
# Experiment in all cases: Percent conversion of non-sulfonylurea herbicides (Example 29)
# S. griseolus ATCC11796 = format: in vitro ADME, Streptomyces griseolus; details: 3.0 mg herbicide in 25 ml broth; 18 hours
# Description: (§1) This experiment was performed as in Example 17 with the following changes. Separate cultures (50 ml) inoculated with S. lividans C37, S. lividans transformed with pCAO200SU1-FeS-B#9, or S. griseolus ATCC11796 were cultured in sporulation broth for 18 hours at 30° C. with shaking. Each culture was then resuspended in 25 ml fresh sporulation broth and 3.0 mg herbicide added. Each culture was reincubated for 18 hours, then an aliquot of the medium was withdrawn and analyzed by HPLC. The percent conversion of herbicide was determined.
# [1] = test system: S. lividans pCAO200SU1-FeS-B#9; format: in vitro ADME, Streptomyces lividans
# Description: as §1
# S. lividans C37 = format: in vitro ADME, Streptomyces lividans; details: 3.0 mg herbicide in 25 ml broth; 18 hours
# Description: as §1
compound,measurement,setting,value
"CC(C)C1(C)N=C(c2nc3ccccc3cc2C(=O)O)NC1=O (stereo not shown) [compound 10035, 2-[4,5-dihydro-4-methyl-4-(1-methylethyl)-5-oxo-1H-imidazol-2-yl]-3-quinolinecarboxylic acid]",Percent Conversion,S. griseolus ATCC11796,21%
same,Percent Conversion,"[1]; 3.0 mg herbicide in 25 ml broth, 18 hours",96%
same,metabolism by bacteria containing constitutively expressed P450SU1,[1]; summary of Table 29,metabolized
same,Percent Conversion,S. lividans C37,22%
